Data reported in ChEMBL document CHEMBL5291721, “A preclinical secondary pharmacology resource illuminates target-adverse drug reaction associations of marketed drugs” (Nat Commun, 2023).

Tests used:
[1] = target: T1, 5-hydroxytryptamine receptor 2C (Homo sapiens, UniProt P28335)
T1 sequence (P28335 whole entry): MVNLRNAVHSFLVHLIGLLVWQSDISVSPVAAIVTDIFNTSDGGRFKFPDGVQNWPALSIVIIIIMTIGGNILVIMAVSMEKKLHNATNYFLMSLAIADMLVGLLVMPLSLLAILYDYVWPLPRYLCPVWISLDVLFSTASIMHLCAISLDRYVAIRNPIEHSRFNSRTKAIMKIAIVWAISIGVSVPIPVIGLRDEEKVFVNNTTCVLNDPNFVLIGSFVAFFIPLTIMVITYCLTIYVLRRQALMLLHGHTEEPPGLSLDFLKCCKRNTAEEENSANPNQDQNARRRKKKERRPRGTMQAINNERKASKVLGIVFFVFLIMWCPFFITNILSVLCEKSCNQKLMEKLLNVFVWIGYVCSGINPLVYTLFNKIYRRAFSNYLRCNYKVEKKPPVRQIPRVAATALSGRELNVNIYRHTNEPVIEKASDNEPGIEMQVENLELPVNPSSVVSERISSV

[2] = target: T2, Neuropeptide Y receptor type 1 (Homo sapiens, UniProt P25929)
T2 sequence (P25929 whole entry): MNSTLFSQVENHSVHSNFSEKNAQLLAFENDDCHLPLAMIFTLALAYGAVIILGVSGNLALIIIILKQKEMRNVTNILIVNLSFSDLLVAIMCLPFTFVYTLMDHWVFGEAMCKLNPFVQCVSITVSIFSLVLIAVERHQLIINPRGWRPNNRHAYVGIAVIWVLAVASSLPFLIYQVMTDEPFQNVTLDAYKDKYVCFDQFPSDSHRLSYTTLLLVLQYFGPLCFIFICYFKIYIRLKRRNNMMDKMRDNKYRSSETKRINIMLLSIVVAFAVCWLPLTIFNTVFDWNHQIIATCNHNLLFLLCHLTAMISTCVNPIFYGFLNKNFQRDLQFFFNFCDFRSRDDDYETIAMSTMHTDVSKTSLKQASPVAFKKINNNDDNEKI

[3] = target: T3, 5-hydroxytryptamine receptor 3A (Homo sapiens, UniProt P46098); type: functional
T3 sequence (P46098 whole entry): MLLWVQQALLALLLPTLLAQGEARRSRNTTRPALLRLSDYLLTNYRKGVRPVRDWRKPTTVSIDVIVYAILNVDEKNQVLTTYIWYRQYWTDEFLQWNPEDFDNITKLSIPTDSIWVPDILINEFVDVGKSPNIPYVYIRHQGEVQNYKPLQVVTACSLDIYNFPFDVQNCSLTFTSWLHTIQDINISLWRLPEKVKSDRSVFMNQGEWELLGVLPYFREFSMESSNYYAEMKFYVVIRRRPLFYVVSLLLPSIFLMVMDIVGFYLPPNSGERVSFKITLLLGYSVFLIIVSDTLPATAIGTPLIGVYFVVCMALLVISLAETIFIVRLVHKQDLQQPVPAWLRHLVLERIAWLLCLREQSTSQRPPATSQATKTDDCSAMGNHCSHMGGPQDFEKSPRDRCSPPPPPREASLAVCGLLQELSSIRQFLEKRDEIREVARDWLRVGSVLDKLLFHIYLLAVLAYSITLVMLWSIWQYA

[4] = target: 5-hydroxytryptamine receptor 2A (Homo sapiens, UniProt P28223); type: functional, cell-based
Sequence of 5-hydroxytryptamine receptor 2A (P28223 whole entry): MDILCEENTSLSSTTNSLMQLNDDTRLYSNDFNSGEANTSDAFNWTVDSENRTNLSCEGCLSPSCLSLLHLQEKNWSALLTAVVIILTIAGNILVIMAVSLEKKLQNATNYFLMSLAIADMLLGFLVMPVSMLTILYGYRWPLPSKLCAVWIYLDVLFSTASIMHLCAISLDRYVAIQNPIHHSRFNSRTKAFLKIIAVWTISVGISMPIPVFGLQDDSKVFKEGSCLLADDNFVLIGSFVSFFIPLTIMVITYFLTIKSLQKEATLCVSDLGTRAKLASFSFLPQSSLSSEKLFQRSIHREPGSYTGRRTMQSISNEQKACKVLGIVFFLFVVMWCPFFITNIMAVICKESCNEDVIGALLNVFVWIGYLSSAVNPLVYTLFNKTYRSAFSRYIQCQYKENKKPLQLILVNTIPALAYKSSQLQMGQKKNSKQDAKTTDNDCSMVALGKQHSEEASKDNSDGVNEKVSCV

[5] = target: T4, Amine oxidase [flavin-containing] A (Homo sapiens, UniProt P21397); type: functional
T4 sequence (P21397 whole entry): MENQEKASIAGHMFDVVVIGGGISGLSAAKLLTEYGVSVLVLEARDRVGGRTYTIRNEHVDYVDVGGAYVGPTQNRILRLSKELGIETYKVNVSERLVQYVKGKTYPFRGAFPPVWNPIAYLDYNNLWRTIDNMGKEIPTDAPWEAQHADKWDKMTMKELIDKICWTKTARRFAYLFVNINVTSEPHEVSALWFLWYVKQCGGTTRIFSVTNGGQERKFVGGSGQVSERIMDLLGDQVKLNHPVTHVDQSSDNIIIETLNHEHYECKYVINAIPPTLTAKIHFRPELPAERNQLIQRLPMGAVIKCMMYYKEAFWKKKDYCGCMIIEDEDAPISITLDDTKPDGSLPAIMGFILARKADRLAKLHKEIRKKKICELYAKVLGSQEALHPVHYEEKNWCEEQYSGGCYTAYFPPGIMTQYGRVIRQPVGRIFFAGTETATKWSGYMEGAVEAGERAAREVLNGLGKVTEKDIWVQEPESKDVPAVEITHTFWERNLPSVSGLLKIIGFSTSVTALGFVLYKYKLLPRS

[6] = target: T5, Alpha-2A adrenergic receptor (Homo sapiens, UniProt P08913); type: functional, cell-based
T5 sequence (P08913 whole entry): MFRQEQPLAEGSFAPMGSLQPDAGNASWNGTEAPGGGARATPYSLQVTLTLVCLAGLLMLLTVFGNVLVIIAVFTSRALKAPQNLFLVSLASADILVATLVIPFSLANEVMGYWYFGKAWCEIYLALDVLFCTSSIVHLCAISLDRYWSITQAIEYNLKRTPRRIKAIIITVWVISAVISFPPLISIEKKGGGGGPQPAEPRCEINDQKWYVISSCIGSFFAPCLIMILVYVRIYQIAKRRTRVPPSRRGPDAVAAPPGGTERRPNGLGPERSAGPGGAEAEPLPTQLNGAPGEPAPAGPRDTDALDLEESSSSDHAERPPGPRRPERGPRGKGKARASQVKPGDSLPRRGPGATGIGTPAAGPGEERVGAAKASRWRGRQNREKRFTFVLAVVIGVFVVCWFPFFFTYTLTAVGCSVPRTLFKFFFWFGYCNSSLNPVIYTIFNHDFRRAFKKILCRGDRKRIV

[7] = target: Delta-type opioid receptor (Homo sapiens, UniProt P41143)
Sequence of Delta-type opioid receptor (P41143 whole entry): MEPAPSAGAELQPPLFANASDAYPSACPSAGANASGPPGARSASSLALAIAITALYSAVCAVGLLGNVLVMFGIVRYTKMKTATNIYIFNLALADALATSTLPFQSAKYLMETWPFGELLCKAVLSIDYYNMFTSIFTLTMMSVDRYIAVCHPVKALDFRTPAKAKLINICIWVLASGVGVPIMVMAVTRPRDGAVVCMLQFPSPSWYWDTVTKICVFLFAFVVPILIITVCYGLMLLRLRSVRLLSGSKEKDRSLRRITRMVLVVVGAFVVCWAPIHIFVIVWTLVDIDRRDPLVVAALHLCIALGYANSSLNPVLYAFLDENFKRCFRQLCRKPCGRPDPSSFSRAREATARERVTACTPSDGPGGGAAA

[8] = target: Kappa-type opioid receptor (Homo sapiens, UniProt P41145)
Sequence of Kappa-type opioid receptor (P41145 whole entry): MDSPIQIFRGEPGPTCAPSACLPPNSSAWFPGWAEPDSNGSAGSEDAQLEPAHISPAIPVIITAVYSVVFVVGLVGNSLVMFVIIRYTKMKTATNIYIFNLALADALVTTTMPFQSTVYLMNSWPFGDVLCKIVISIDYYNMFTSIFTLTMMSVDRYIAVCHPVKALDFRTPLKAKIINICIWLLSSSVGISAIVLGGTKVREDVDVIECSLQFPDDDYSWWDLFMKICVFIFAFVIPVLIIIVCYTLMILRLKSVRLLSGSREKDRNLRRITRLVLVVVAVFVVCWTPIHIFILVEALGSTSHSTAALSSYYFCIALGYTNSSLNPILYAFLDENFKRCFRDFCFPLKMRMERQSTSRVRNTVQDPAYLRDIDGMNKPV

[9] = target: Vasopressin V1a receptor (Homo sapiens, UniProt P37288)
Sequence of Vasopressin V1a receptor (P37288 whole entry): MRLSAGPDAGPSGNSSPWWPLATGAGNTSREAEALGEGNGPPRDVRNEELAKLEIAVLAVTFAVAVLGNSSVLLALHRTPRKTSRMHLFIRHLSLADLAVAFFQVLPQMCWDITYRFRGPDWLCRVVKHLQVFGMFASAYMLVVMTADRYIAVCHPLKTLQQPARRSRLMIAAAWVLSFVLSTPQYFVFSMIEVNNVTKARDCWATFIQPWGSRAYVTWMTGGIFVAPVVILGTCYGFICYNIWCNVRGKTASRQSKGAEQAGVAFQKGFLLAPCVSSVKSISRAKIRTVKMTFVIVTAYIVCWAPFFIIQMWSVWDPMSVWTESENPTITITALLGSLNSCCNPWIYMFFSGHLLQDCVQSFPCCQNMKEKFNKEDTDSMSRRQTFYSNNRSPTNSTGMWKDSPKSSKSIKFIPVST

[10] = target: Cannabinoid receptor 1 (Homo sapiens, UniProt P21554); type: functional, cell-based
Sequence of Cannabinoid receptor 1 (P21554 whole entry): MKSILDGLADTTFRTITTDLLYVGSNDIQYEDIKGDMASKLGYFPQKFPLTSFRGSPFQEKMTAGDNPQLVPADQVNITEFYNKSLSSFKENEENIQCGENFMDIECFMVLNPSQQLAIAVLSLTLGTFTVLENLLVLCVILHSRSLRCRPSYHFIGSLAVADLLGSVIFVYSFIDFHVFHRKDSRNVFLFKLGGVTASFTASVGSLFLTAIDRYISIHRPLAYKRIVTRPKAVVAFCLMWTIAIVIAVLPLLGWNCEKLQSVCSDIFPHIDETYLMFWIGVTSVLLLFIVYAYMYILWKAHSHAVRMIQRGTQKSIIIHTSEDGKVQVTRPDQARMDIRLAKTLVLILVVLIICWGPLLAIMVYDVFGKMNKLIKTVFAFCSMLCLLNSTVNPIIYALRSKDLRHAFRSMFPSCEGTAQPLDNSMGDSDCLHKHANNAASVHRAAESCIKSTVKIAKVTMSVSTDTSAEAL

[11] = target: Gamma-aminobutyric acid receptor subunit alpha-1 (Rattus norvegicus, UniProt P62813)
Sequence of Gamma-aminobutyric acid receptor subunit alpha-1 (P62813 whole entry): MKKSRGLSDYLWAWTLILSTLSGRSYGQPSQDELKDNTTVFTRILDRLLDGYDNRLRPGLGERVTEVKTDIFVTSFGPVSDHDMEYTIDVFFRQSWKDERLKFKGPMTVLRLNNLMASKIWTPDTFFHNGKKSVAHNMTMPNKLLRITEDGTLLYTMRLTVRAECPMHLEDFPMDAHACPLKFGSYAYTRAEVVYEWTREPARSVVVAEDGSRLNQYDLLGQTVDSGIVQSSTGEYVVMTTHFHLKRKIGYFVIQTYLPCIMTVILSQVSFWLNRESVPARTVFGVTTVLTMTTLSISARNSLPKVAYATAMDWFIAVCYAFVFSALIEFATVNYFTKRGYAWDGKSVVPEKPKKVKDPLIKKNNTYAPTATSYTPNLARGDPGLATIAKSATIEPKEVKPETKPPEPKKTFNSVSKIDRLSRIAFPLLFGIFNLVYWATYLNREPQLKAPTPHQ
Note: assay procedure not described here.

SMILES	AC50 [1] [µM]	AC50 [2] [µM]	AC50 [3] [µM]	AC50 [4] [µM]	AC50 [5] [µM]	AC50 [6] [µM]	AC50 [7] [µM]	AC50 [8] [µM]	AC50 [9] [µM]	AC50 [10] [µM]	AC50 [11] [µM]
CN1CC(=O)N2[C@H](c3ccc4c(c3)OCO4)c3[nH]c4ccccc4c3C[C@@H]2C1=O	> 30	> 30	> 30	> 30	> 10	> 10	> 30	> 10	> 30	> 30	> 10
O=C(C[S+]([O-])C(c1ccccc1)c1ccccc1)NO (centres undefined)	> 30	> 30	> 30	> 30	> 30	> 30	> 30	> 30	> 30	> 30	> 30
C=C1CC[C@@]2(O)[C@H]3Cc4ccc(O)c5c4[C@@]2(CCN3CC2CC2)[C@H]1O5	> 30	> 30	> 30	> 30	> 30	> 30			> 30	> 30	> 30
Nc1ncnc2c1ncn2[C@@H]1O[C@H](COP(=O)(O)O)[C@@H](O)[C@H]1O [ADENOSINE PHOSPHATE]	> 30	> 30	> 30	> 30	> 30	> 30	> 30	> 30	> 30	> 30	> 30
CCCC(CCC)C(=O)O[C@H]1C[C@H]2CC[C@@H](C1)[N+]2(C)C [ANISOTROPINE]	> 30	> 30	28	> 30	> 30	> 30	> 30	> 30	> 30	> 30	
CN1CCc2cccc3c2[C@H]1Cc1ccc(O)c(O)c1-3 [APOMORPHINE]	7.3	> 20		> 30	> 10	> 10	> 30	19.4	> 30	> 30	> 10
NC(CO)C(=O)NNCc1ccc(O)c(O)c1O (centres undefined) [BENSERAZIDE]	> 30	5.67	> 30	> 30	> 10	> 10	30	> 10	> 30	> 30	> 10
CCC(C(=O)O)c1ccc(CC(C)C)cc1 (centres undefined) [BUTIBUFEN]	> 30	> 30	> 30	> 30	> 30	> 30	> 30	> 30	> 30	> 30	> 30
CN(C)C(=O)OC1N=C(c2ccccc2)c2cc(Cl)ccc2N(C)C1=O (centres undefined) [CAMAZEPAM]	> 30	> 30	> 10	> 30	> 10	> 10	> 10	> 10	> 10	> 30	> 10
CCCCCOC(=O)Nc1nc(=O)n([C@@H]2O[C@H](C)[C@@H](O)[C@H]2O)cc1F [CAPECITABINE]	> 30	> 30	> 30	> 30	> 30	> 30	> 30	> 30	> 30	> 30	
CCOc1cc(N)c([N+](=O)[O-])cc1C(=O)NC1CCN(CC2CC=CCC2)CC1 (centres undefined) [CINITAPRIDE]		> 30	22	> 30	> 30	> 30	> 30	9.1	> 30	> 30	> 30
O=C1CN=C(c2ccccc2)c2cc(Cl)ccc2N1CC(F)(F)F [HALAZEPAM]		> 30	> 30	> 30	> 30	> 30	> 30	20	> 30	> 30	
O=C(O)Cc1cn(-c2ccccc2)nc1-c1ccc(Cl)cc1 [LONAZOLAC]	> 30	> 30	> 30	> 30		> 30	> 30	> 30	> 30	> 30	> 30
O=C(O)CCCc1ccccc1 [PHENYLBUTANOIC ACID]	> 30	> 10	> 30	> 30	> 30	> 30	> 30	> 30	> 30		> 30
CC(Cc1ccccc1)NCCC(c1ccccc1)c1ccccc1 (centres undefined) [PRENYLAMINE]	> 30	> 30	> 30	> 30	> 10	> 10	> 30	0.382	> 30		> 10
Cc1nc2ccc(CN(C)c3ccc(C(=O)N[C@@H](CCC(=O)O)C(=O)O)s3)cc2c(=O)[nH]1 [RALTITREXED]	> 30	> 30	> 30	> 30	> 30	> 30	> 30	> 30	> 30		> 30
CC(=O)NS(=O)(=O)c1ccc(N)cc1 [SULFACETAMIDE]	> 30	> 10	> 30	> 10	> 10	> 10	> 30	> 10	> 10		> 10
Cc1ccc(-c2nc3ccc(C)cn3c2CC(=O)N(C)C)cc1 [ZOLPIDEM]	> 30	> 30	> 30	> 30	> 30	> 30	> 30	18	> 30	> 30	
